In patent US8143243B2, “Compounds for the treatment of hepatitis C” (Bristol-Myers Squibb Company, priority 2007, dated 2012):

These compounds were tested against T1, HCV NS5B (Hepatitis C virus genotype 1b, UniProt Q9WMX2) (assay: HCV NS5B RdRp enzyme assay (standard / modified)). Conditions: not given.
T1 construct: The protein was expressed with an 18 amino acid C-terminal truncation to enhance the solubility; made in house; host or cells: E. coli BL21 (DE3)
Assay type: biochemical
Protocol: HCV NS5B RdRp cloning, expression, and purification. The cDNA encoding the NS5B protein of HCV, genotype 1b, was cloned into the pET21a expression vector. The protein was expressed with an 18 amino acid C-terminal truncation to enhance the solubility. The E. coli competent cell line BL21 (DE3) was used for expression of the protein. Cultures were grown at 37° C. for ˜4 hours until the cultures reached an optical density of 2.0 at 600 nm. The cultures were cooled to 20° C. and induced with 1 mM IPTG. Fresh ampicillin was added to a final concentration of 50 μg/ml and the cells were grown overnight at 20° C.
Cell pellets (3 L) were lysed for purification to yield 15-24 mgs of purified NS5B. The lysis buffer consisted of 20 mM Tris-HCl, pH 7.4, 500 mM NaCl, 0.5% triton X-100, 1 mM DTT, 1 mM EDTA, 20% glycerol, 0.5 mg/ml lysozyme, 10 mM MgCl2, 15 ug/ml deoxyribonuclease I, and Complete TM protease inhibitor tablets (Roche). After addition of the lysis buffer, frozen cell pellets were resuspended using a tissue homogenizer. To reduce the viscosity of the sample, aliquots of the lysate were sonicated on ice using a microtip attached to a Branson sonicator. The sonicated lysate was centrifuged at 100,000×g for 1 hr at 4° C. and filtered through a 0.2 μm filter unit (Corning).
The protein was purified using three sequential chromatography steps: Heparin sepharose CL-6B, polyU sepharose 4B, and Hitrap SP sepharose (Pharmacia). The chromatography buffers were identical to the lysis buffer but contained no lysozyme, deoxyribonuclease I, MgCl2 or protease inhibitor and the NaCl concentration of the buffer was adjusted according to the requirements for charging the protein onto the column. Each column was eluted with a NaCl gradient which varied in length from 5-50 column volumes depending on the column type. After the final chromatography step, the resulting purity of the enzyme is >90% based on SDS-PAGE analysis. The enzyme was aliquoted and stored at −80° C.
Standard HCV NS5B RdRp enzyme assay. HCV RdRp genotype 1b assays were run in a final volume of 60 μl in 96 well plates (Costar 3912). The assay buffer is composed of 20 mM Hepes, pH 7.5, 2.5 mM KCl, 2.5 mM MgCl2, 1 mM DTT, 1.6 U RNAse inhibitor (Promega N2515), 0.1 mg/ml BSA (Promega R3961), and 2% glycerol. All compounds were serially diluted (3-fold) in DMSO and diluted further in water such that the final concentration of DMSO in the assay was 2%. HCV RdRp genotype 1b enzyme was used at a final concentration of 28 nM. A polyA template was used at 6 nM, and a biotinylated oligo-dT12 primer was used at 180 nM final concentration. Template was obtained commercially (Amersham 27-4110). Biotinylated primer was prepared by Sigma Genosys. 3H-UTP was used at 0.6 μCi (0.29 μM total UTP). Reactions were initiated by the addition of enzyme, incubated at 30° C. for 60 min, and stopped by adding 25 μl of 50 mM EDTA containing SPA beads (4 μg/μl, Amersham RPNQ 0007). Plates were read on a Packard Top Count NXT after >1 hr incubation at room temperature.
Modified HCV NS5B RdRp enzyme assay. A modified enzyme assay was performed essentially as described for the standard enzyme assay except for the following: The biotinylated oligo dT12 primer was precaptured on streptavidin-coated SPA beads by mixing primer and beads in assay buffer and incubating at room temperature for one hour. Unbound primer was removed after centrifugation. The primer-bound beads were resuspended in 20 mM Hepes buffer, pH 7.5 and used in the assay at final concentrations of 20 nM primer and 0.67 μg/μl beads. Order of addition in the assay: enzyme (14 nM) was added to diluted compound followed by the addition of a mixture of template (0.2 nM), 3H-UTP (0.6 μCi, 0.29 μM), and primer-bound beads, to initiate the reaction; concentrations given are final. Reactions were allowed to proceed for 4 hours at 30° C.
IC50 values for compounds were determined using seven different [I]. […]

T1 sequence (Q9WMX2 2420-2992): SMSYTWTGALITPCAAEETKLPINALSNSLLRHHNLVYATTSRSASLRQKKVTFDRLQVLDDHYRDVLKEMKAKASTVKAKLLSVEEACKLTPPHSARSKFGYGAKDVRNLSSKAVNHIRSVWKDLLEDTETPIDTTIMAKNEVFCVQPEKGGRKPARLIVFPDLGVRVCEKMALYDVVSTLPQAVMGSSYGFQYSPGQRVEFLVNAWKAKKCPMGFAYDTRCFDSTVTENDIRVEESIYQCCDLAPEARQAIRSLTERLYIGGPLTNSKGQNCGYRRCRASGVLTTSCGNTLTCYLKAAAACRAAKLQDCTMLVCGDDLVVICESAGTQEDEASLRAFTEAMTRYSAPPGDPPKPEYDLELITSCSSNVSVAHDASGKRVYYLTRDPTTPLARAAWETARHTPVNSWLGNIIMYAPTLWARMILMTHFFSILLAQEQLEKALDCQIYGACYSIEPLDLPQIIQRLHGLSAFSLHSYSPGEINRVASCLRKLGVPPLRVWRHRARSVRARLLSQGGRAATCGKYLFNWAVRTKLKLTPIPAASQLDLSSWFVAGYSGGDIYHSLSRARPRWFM

| Compound | IC50 [nM] |
| --- | --- |
| COc1ccc2c(c1)C=C(c1c(C(=O)N3[C@H]4CC[C@@H]3CC4)cnn1C)Cn1c-2c(C2CCCCC2)c2ccc(C(=O)NS(=O)(=O)C(C)C)cc21 | 1 to 500 |

Same assay, conditions: HCV RdRp genotype 1b enzyme; read-out: IC50

| Compound | IC50 [nM] |
| --- | --- |
| COc1ccc2c(c1)C=C(c1c(C(=O)N3C[C@@H](C)O[C@@H](C)C3)cnn1C)Cn1c-2c(C2CCCCC2)c2ccc(C(=O)NS(=O)(=O)C3CCCC3)cc21 | 1 to 500 |
| COc1ccc2c(c1)C=C(c1c(C(=O)N(Cc3ccccc3OC)C(C)C)cnn1C)Cn1c-2c(C2CCCCC2)c2ccc(C(=O)NS(=O)(=O)C(C)C)cc21 | 1 to 500 |
| COc1ccc2c(c1)C=C(c1c(C(=O)N3CCCC(N(C)C)C3)cnn1C)Cn1c-2c(C2CCCCC2)c2ccc(C(=O)NS(=O)(=O)C3CCCC3)cc21 (stereo not drawn) | 1 to 500 |
| COc1ccc2c(c1)C=C(c1c(C(=O)N3C[C@@H](C)O[C@@H](C)C3)cnn1C)Cn1c-2c(C2CCCCC2)c2ccc(C(=O)NS(=O)(=O)C3CCC3)cc21 | 1 to 500 |
| COC(=O)c1c(C)nn(C)c1C1=Cc2cc(OC)ccc2-c2c(C3CCCCC3)c3ccc(C(=O)NS(=O)(=O)N(C)C)cc3n2C1 | 1 to 500 |
| CCC(C)S(=O)(=O)NC(=O)c1ccc2c(C3CCCCC3)c3n(c2c1)CC(c1c(C(=O)N2CCN4CCCC4C2)cnn1C)=Cc1cc(OC)ccc1-3 (stereo not drawn) | 1 to 500 |
| CCn1ncc(C(=O)N2CC3CCC(C2)O3)c1C1=Cc2cc(OC)ccc2-c2c(C3CCCCC3)c3ccc(C(=O)NS(=O)(=O)C(C)C)cc3n2C1 | 1 to 500 |
| CCOC(=O)c1cnn(C)c1C1=Cc2cc(OC)ccc2-c2c(C3CCCCC3)c3ccc(C(=O)NS(=O)(=O)C(C)CC)cc3n2C1 (stereo not drawn) | 1 to 500 |
| COc1ccc2c(c1)C=C(c1c(C(=O)N3C[C@@H](C)N(C)[C@@H](C)C3)cnn1C)Cn1c-2c(C2CCCCC2)c2ccc(C(=O)NS(=O)(=O)C3CCCC3)cc21 | 1 to 500 |
| COc1ccc2c(c1)C=C(c1c(C(=O)O)cnn1C)Cn1c-2c(C2CCCCC2)c2ccc(C(=O)NS(=O)(=O)C(C)C)cc21 | 1 to 500 |
| CCc1nnc(CN(C(=O)c2cnn(C)c2C2=Cc3cc(OC)ccc3-c3c(C4CCCCC4)c4ccc(C(=O)NS(=O)(=O)C(C)C)cc4n3C2)C(C)C)o1 | 1 to 500 |
| CCOC(=O)c1cnn(C)c1C1=Cc2cc(OC)ccc2-c2c(C3CCCCC3)c3ccc(C(=O)NS(=O)(=O)C4CCC4)cc3n2C1 | 1 to 500 |
| CCN1C[C@@H]2C[C@H]1CN2C(=O)c1cnn(C)c1C1=Cc2cc(OC)ccc2-c2c(C3CCCCC3)c3ccc(C(=O)NS(=O)(=O)C4CCCC4)cc3n2C1 | 1 to 500 |
| CCn1nc(C)c(C(=O)N2C[C@@H](C)N(C)[C@@H](C)C2)c1C1=Cc2cc(OC)ccc2-c2c(C3CCCCC3)c3ccc(C(=O)NS(=O)(=O)C(C)C)cc3n2C1 | 1 to 500 |
| COc1ccc2c(c1)C=C(c1c(C(=O)N3CCCC(N(C)C)C3)cnn1C)Cn1c-2c(C2CCCCC2)c2ccc(C(=O)NS(=O)(=O)CC(C)C)cc21 (stereo not drawn) | 1 to 500 |
| COc1ccc2c(c1)C=C(c1c(C(=O)N3CCN4CCCC4C3)cnn1C)Cn1c-2c(C2CCCCC2)c2ccc(C(=O)NS(=O)(=O)C3CCCC3)cc21 (stereo not drawn) | 1 to 500 |
| CCN1CC2CC1CN2C(=O)c1cnn(C)c1C1=Cc2cc(OC)ccc2-c2c(C3CCCCC3)c3ccc(C(=O)NS(=O)(=O)CC(C)C)cc3n2C1 (stereo not drawn) | 1 to 500 |
| COc1ccc2c(c1)C=C(c1c(C(=O)N3CCN4CCCC4C3)cnn1C)Cn1c-2c(C2CCCCC2)c2ccc(C(=O)NS(=O)(=O)CC(C)C)cc21 (stereo not drawn) | 1 to 500 |
| CCC(C)S(=O)(=O)NC(=O)c1ccc2c(C3CCCCC3)c3n(c2c1)CC(c1c(C(=O)N2C[C@@H]4C[C@H]2CN4CC)cnn1C)=Cc1cc(OC)ccc1-3 (stereo partly drawn) | 1 to 500 |
| CCOC(=O)c1cnn(C)c1C1=Cc2cc(OC)ccc2-c2c(C3CCCCC3)c3ccc(C(=O)NS(=O)(=O)CC(C)C)cc3n2C1 | 1 to 500 |
| COc1ccc2c(c1)C=C(c1c(C(=O)O)cnn1C)Cn1c-2c(C2CCCCC2)c2ccc(C(=O)NS(=O)(=O)C3CCC3)cc21 | 1 to 500 |
| COc1ccc2c(c1)C=C(c1c(C(=O)N3C[C@@H](C)N(C)[C@@H](C)C3)cnn1C)Cn1c-2c(C2CCCCC2)c2ccc(C(=O)NS(=O)(=O)CC(C)C)cc21 | 1 to 500 |
| COc1ccc2c(c1)C=C(c1nn(C(C)C)c(C)c1C(=O)N1C[C@@H](C)O[C@@H](C)C1)Cn1c-2c(C2CCCCC2)c2ccc(C(=O)NS(=O)(=O)C(C)C)cc21 [drawing 622] | 1 to 500 |
| COc1ccc2c(c1)C=C(c1c(C(=O)N3CC4CCC(C3)O4)c(C)nn1C(C)C)Cn1c-2c(C2CCCCC2)c2ccc(C(=O)NS(=O)(=O)C(C)C)cc21 | 1 to 500 |
| COc1ccc2c(c1)C=C(c1c(C(=O)N3C[C@@H](C)N(C)[C@@H](C)C3)cnn1C)Cn1c-2c(C2CCCCC2)c2ccc(C(=O)NS(=O)(=O)C3CCC3)cc21 | 1 to 500 |
| CCN(C(=O)c1cnn(C)c1C1=Cc2cc(OC)ccc2-c2c(C3CCCCC3)c3ccc(C(=O)NS(=O)(=O)C4CCCC4)cc3n2C1)C(C)C | 1 to 500 |
| CCn1nc(C)c(C(=O)N2CCO[C@H](COC)C2)c1C1=Cc2cc(OC)ccc2-c2c(C3CCCCC3)c3ccc(C(=O)NS(=O)(=O)C(C)C)cc3n2C1 | 1 to 500 |
| COC(=O)c1c(C)nn(C)c1C1=Cc2cc(OC)ccc2-c2c(C3CCCCC3)c3ccc(C(=O)NS(=O)(=O)CC(C)C)cc3n2C1 | 1 to 500 |
| COc1ccc2c(c1)C=C(c1nn(C(C)C)c(C)c1C(=O)N1C[C@@H](C)O[C@@H](C)C1)Cn1c-2c(C2CCCCC2)c2ccc(C(=O)NS(=O)(=O)C(C)C)cc21 [drawing 617] | 1 to 500 |
